Data from patent publication US20250154144A1 (CHILDREN'S HOSPITAL MEDICAL CENTER, priority 2021, published 2025).
Read-outs that look alike come from different tables or passages of the source.

Columns and labels:
THP1 cells = test: Combination drug screening, Cell Titer Glo, 10 × 10 matrix, THP1 cells; format: cell-based; details: THP1 cells; for Excess HSA Score: 10 × 10
MOLM14(D835Y) cells = format: cell-based; details: MOLM14(D835Y) cells; for Excess HSA Score: 10 × 10
FLT3 = target: T1, FLT3 (Homo sapiens, UniProt P36888); test: RBC HotSpot Kinase Assay, FLT3
T1 sequence (P36888 610-943 limits assumed): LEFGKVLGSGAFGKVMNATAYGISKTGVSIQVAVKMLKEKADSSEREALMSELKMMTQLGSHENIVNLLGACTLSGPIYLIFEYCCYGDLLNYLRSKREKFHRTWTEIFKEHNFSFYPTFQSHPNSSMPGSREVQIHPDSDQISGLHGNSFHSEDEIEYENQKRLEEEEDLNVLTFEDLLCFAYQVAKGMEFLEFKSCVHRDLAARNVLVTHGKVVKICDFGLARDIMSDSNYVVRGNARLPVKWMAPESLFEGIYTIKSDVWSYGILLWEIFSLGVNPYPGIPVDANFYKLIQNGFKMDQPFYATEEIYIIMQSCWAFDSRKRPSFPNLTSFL

IRAK1 = IRAK1 (Homo sapiens, UniProt P51617); test: RBC HotSpot Kinase Assay, IRAK1
Sequence of IRAK1 (P51617 whole entry): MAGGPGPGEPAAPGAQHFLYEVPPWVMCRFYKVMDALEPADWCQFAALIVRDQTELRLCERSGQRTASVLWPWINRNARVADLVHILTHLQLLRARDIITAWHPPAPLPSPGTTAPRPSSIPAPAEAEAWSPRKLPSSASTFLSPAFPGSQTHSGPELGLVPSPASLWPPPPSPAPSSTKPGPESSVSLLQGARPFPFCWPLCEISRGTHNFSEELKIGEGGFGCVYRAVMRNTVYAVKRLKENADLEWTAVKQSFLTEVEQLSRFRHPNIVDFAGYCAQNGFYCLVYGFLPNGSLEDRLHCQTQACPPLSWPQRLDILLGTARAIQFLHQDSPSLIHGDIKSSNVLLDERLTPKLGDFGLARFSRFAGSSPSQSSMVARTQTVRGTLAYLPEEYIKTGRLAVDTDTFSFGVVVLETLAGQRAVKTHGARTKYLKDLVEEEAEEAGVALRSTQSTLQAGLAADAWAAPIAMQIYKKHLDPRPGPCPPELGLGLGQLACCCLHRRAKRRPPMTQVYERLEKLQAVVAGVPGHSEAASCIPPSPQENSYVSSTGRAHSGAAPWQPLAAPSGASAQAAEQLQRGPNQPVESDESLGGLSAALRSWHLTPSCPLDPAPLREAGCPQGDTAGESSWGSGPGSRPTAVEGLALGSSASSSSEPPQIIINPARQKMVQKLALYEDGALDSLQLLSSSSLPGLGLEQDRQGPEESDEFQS

IRAK4 = target: T2, IRAK4 (Homo sapiens, UniProt Q9NWZ3); test: RBC HotSpot Kinase Assay, IRAK4
T2 sequence (Q9NWZ3 1-460): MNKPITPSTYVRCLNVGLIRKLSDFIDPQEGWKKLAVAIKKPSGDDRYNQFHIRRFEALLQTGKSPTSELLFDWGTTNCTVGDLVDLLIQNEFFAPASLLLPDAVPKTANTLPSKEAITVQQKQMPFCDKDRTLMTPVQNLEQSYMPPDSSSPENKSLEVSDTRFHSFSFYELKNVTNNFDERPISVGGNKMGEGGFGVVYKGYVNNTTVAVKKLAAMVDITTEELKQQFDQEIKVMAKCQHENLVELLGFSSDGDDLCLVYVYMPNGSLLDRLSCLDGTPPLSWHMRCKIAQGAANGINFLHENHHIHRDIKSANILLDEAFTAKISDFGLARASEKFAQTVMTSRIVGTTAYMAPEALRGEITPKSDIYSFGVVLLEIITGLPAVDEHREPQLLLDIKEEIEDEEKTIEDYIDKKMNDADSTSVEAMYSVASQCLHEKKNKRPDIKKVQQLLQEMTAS

MOLM14 D835Y cells = test: cells; format: cell-based; details: 48 hours, Cell Titer Glo, read-out: MOLM14 D835Y IC50
MOLM14 F691L cells = test: cells; format: cell-based; details: read-out: MOLM14 F691L IC50
[1] = combination with (+)-BAY-1251152
[2] = combination with Eprenetapopt/APR-246
[3] = combination with Venetoclax (ABT-199)

COc1cc2ncc(-c3ccnc(N[C@@H]4CCCNC4)n3)n2cc1C(C)(O)C(F)(F)F (single isomer, unassigned) [Compound 59]
Excess HSA Score (THP1 cells; [1]): −945.9
Excess HSA Score (THP1 cells; combination with AMG-232): 249.9
Excess HSA Score (THP1 cells; combination with AZD-5363): −164.6
Excess HSA Score (THP1 cells; [2]): 269.2
Excess HSA Score (THP1 cells; combination with Ivosidenib): 205.2
Excess HSA Score (THP1 cells; combination with Lenalidomide): 30.374
Excess HSA Score (THP1 cells; combination with Palbociclib): −620.1
Excess HSA Score (THP1 cells; combination with Prednisolone): 486.6
Excess HSA Score (THP1 cells; combination with SNDX-5613): 68.13
Excess HSA Score (THP1 cells; combination with TNO-155): 213.8
Excess HSA Score (THP1 cells; combination with Trametinib): −374.5
Excess HSA Score (THP1 cells; combination with Ulixertinib): 164.2711
Excess HSA Score (THP1 cells; [3]): −1422
Comments (THP1 cells; combination with Lenalidomide): Antagonistic
Comments (THP1 cells; [3]): Synergistic
Excess HSA Score (MOLM14(D835Y) cells; [1]): −448.2
Excess HSA Score (MOLM14(D835Y) cells; combination with AMG-232): −416.2
Excess HSA Score (MOLM14(D835Y) cells; combination with AZD-5363): −316.4244
Excess HSA Score (MOLM14(D835Y) cells; [2]): −22.76
Excess HSA Score (MOLM14(D835Y) cells; combination with Ivosidenib): 107.6
Excess HSA Score (MOLM14(D835Y) cells; combination with Lenalidomide): 395.8
Excess HSA Score (MOLM14(D835Y) cells; combination with Palbociclib): −185.3
Excess HSA Score (MOLM14(D835Y) cells; combination with Prednisolone): 66.52
Excess HSA Score (MOLM14(D835Y) cells; combination with SNDX-5613): 130.9
Excess HSA Score (MOLM14(D835Y) cells; combination with TNO-155): −722.6
Excess HSA Score (MOLM14(D835Y) cells; combination with Trametinib): −383
Excess HSA Score (MOLM14(D835Y) cells; combination with Ulixertinib): −473
Excess HSA Score (MOLM14(D835Y) cells; [3]): −1215
Comments (MOLM14(D835Y) cells; combination with Prednisolone): Antagonistic
Comments (MOLM14(D835Y) cells; [3]): Synergistic
IC50 (FLT3; read-out: FLT3 IC50): < 0.5 nM
IC50 (IRAK1; read-out: IRAK1 IC50): < 0.5 nM
IC50 (IRAK4; read-out: IRAK4 IC50): < 0.5 nM

CC(O)(c1cn2c(-c3ccnc(N[C@@H]4CCCNC4)n3)cnc2cn1)C(F)(F)F (single isomer, unassigned) [Compound 67]
IC50 (MOLM14 D835Y cells; Homo sapiens, MOLM-14, 48 h): 137 nM
IC50 (MOLM14 F691L cells; Homo sapiens, MOLM-14, 48 h, 48 hours, Cell Titer Glo): 770 nM
IC50 (FLT3; FLT3 IC50): < 0.5 nM
IC50 (IRAK1; IRAK1 IC50): 31 nM
IC50 (IRAK4; IRAK4 IC50): 22 nM

CC(O)(c1cn2c(-c3ccnc(N[C@H]4CNC[C@@H]4F)n3)cnc2cn1)C(F)(F)F (single isomer, unassigned) [Compound 71]
IC50 (MOLM14 D835Y cells): 69 nM
IC50 (MOLM14 F691L cells; 48 hours, Cell Titer Glo): 686 nM
IC50 (FLT3; read-out: FLT3 IC50): < 0.5 nM
IC50 (IRAK1; IRAK1 IC50): 5 nM
IC50 (IRAK4; IRAK4 IC50): < 0.5 nM

CC(O)(c1cn2c(-c3cncc(N[C@@H]4CCCNC4)n3)cnc2cn1)C(F)(F)F (single isomer, unassigned) [Compound 73]
IC50 (MOLM14 D835Y cells): 612 nM
IC50 (MOLM14 F691L cells; 48 hours, Cell Titer Glo): 969 nM
IC50 (FLT3; FLT3 IC50): 8 nM
IC50 (IRAK1; IRAK1 IC50): 91 nM
IC50 (IRAK4; IRAK4 IC50): 37 nM

CC(C)(O)c1ccc2ncc(-c3cncc(N[C@@H]4CCCNC4)n3)n2c1 [Compound 17, (R)-2-(3-(6-(piperidin-3-ylamino)pyrazin-2-yl)imidazo[1,2-a]pyridin-6-yl)propan-2-ol]
IC50 (FLT3; FLT3 IC50): 5 nM
IC50 (IRAK1; IRAK1 IC50): 105 nM
IC50 (IRAK4; IRAK4 IC50): 7 nM

COc1cc2ncc(-c3cncc(N[C@@H]4CCCNC4)n3)n2nc1C1CC1 [Compound 23, (R)-6-(6-cyclopropyl-7-methoxyimidazo[1,2-b]pyridazin-3-yl)-N-(piperidin-3-yl)pyrazin-2-amine]
IC50 (FLT3; FLT3 IC50): < 0.5 nM
IC50 (IRAK1; IRAK1 IC50): 175 nM
IC50 (IRAK4; IRAK4 IC50): 1 nM

COc1ccn2c(-c3ccnc(N[C@H]4CNCC[C@@H]4F)n3)cnc2c1 [Compound 30, N-((3S,4S)-4-fluoropiperidin-3-yl)-4-(7-methoxyimidazo[1,2-a]pyridin-3-yl)pyrimidin-2-amine]
IC50 (MOLM14 F691L cells; Homo sapiens, MOLM-14, 48 h): 61 nM
Excess HSA Score (THP1 cells; [1]): −655.1
Excess HSA Score (THP1 cells; combination with AMG-232): −76.43
Excess HSA Score (THP1 cells; combination with AZD-5363): −13.97
Excess HSA Score (THP1 cells; [2]): 389.5
Excess HSA Score (THP1 cells; combination with Ivosidenib): 59.9
Excess HSA Score (THP1 cells; combination with Lenalidomide): −90.11
Excess HSA Score (THP1 cells; combination with Palbociclib): −678.3
Excess HSA Score (THP1 cells; combination with Prednisolone): 188.1
Excess HSA Score (THP1 cells; combination with SNDX-5613): 1.322
Excess HSA Score (THP1 cells; combination with TNO-155): 591.3
Excess HSA Score (THP1 cells; combination with Trametinib): −203.6
Excess HSA Score (THP1 cells; combination with Ulixertinib): −362.3
Excess HSA Score (THP1 cells; [3]): −1632
Comments (THP1 cells; combination with Ivosidenib): Antagonistic
Comments (THP1 cells; combination with SNDX-5613): Additive
Comments (THP1 cells; [3]): Synergistic
Excess HSA Score (MOLM14(D835Y) cells; [1]): −230
Excess HSA Score (MOLM14(D835Y) cells; combination with AMG-232): −524.3
Excess HSA Score (MOLM14(D835Y) cells; combination with AZD-5363): −738.1
Excess HSA Score (MOLM14(D835Y) cells; [2]): −284.6
Excess HSA Score (MOLM14(D835Y) cells; combination with Ivosidenib): −74.07
Excess HSA Score (MOLM14(D835Y) cells; combination with Lenalidomide): 299.3
Excess HSA Score (MOLM14(D835Y) cells; combination with Palbociclib): −448.3
Excess HSA Score (MOLM14(D835Y) cells; combination with Prednisolone): 3.447
Excess HSA Score (MOLM14(D835Y) cells; combination with SNDX-5613): −303.5
Excess HSA Score (MOLM14(D835Y) cells; combination with TNO-155): −922.2
Excess HSA Score (MOLM14(D835Y) cells; combination with Trametinib): −313.7
Excess HSA Score (MOLM14(D835Y) cells; combination with Ulixertinib): 14.83
Excess HSA Score (MOLM14(D835Y) cells; [3]): −1291
Comments (MOLM14(D835Y) cells; combination with Prednisolone): Antagonistic
Comments (MOLM14(D835Y) cells; [3]): Synergistic

F[C@H]1CNC[C@@H]1Nc1nccc(-c2cnc3cc(OC4CC4)ccn23)n1 [Compound 37, 4-(7-cyclopropoxyimidazo [1,2-a]pyridin-3-yl)-N-((3S,4S)-4-fluoropyrrolidin-3-yl)pyrimidin-2-amine]
IC50 (FLT3; FLT3 IC50): < 0.5 nM
IC50 (IRAK1; IRAK1 IC50): 13 nM
IC50 (IRAK4; IRAK4 IC50): 1 nM

CC(C)(O)c1ccc2ncc(-c3ccnc(N[C@H]4CNC[C@@H]4F)n3)n2c1 [Compound 40, 2-(3-(2-(((3S,4S)-4-fluoropyrrolidin-3-yl)amino)pyrimidin-4-yl)imidazo[1,2-a]pyridin-6-yl)propan-2-ol]
IC50 (FLT3; FLT3 IC50): < 0.5 nM
IC50 (IRAK1; IRAK1 IC50): 79 nM
IC50 (IRAK4; IRAK4 IC50): 1 nM

CC(C)(O)c1ccc2ncc(-c3ccnc(N[C@@H]4CCCNC4)n3)n2c1 [Compound 41, (R)-2-(3-(2-(piperidin-3-ylamino)pyrimidin-4-yl)imidazo[1,2-a]pyridin-6-yl)propan-2-ol]
IC50 (FLT3; FLT3 IC50): 1 nM
IC50 (IRAK1; IRAK1 IC50): 124 nM
IC50 (IRAK4; IRAK4 IC50): 8 nM

COc1cc2ncc(-c3ccnc(N[C@H]4CNCC[C@@H]4F)n3)n2cc1C(C)(O)C(F)(F)F (some centres unmarked) [Compound 60]
IC50 (FLT3; FLT3 IC50): < 0.5 nM
IC50 (IRAK1; IRAK1 IC50): < 0.5 nM
IC50 (IRAK4; IRAK4 IC50): < 0.5 nM
